One assay concerns the target P2X7 (Homo sapiens (Human), UniProt Q99572). The assay is described as follows: P2X7 antagonism in human peripheral blood mononuclear cells (PBMCs), IL-1β release. The following applies: P2X7; Table 3 (additional runs); 10 μM compound; read-out: PBMC 10 μM (% control). The format is cell-based. Here is the method: P2X7 Antagonism in Human Peripheral Blood Mononuclear Cells (PBMCs) and Human Whole Blood.
Human blood was collected using a blood donor program. PBMCs were isolated from blood using a Ficoll density gradient technique. Briefly, blood was laid on Ficoll solution and centrifuged at RT for 20 minutes at 2000 rpm. The buffy layer (between red blood cells and plasma) was carefully collected by aspiration, washed with PBS and centrifuged again at 1500 rpm for 15 minutes. The resulting cell pellet was washed and plated on 96 well-plates for experiments. For the Human Whole Blood experiments, 150 μl of human blood was platted on 96 well-plates. Lipopolysaccharide (LPS) (30 ng/ml) was added to each well and incubated for 1 hour. Test compounds were then added and incubated for 30 minutes. The P2X7 agonist, 2′(3′)-O-(4-benzoylbenzoyl) adenosine 5′-triphosphate (Bz-ATP) was then added at a final concentration of 0.5 mM (PBMC) or 1 mM (blood). Cells were incubated for an additional 1.5 hours. At that point, supernatant was collected and stored for IL-1β assay using manufacturer's protocol for enzyme-linked immunosorbent assay (ELISA). Data was expressed as percent control, where control is defined as the difference in IL-1β release in LPS+Bz-ATP samples and LPS only samples. Data was plotted as response (% control) versus concentration to generate IC50 values. […] Data are analyzed and graphed on Graphpad Prism 5. For analysis, each concentration point is averaged from triplicate values and the averaged values are plotted on Graphpad Prism.
P2X7, sequence (Q99572 whole entry): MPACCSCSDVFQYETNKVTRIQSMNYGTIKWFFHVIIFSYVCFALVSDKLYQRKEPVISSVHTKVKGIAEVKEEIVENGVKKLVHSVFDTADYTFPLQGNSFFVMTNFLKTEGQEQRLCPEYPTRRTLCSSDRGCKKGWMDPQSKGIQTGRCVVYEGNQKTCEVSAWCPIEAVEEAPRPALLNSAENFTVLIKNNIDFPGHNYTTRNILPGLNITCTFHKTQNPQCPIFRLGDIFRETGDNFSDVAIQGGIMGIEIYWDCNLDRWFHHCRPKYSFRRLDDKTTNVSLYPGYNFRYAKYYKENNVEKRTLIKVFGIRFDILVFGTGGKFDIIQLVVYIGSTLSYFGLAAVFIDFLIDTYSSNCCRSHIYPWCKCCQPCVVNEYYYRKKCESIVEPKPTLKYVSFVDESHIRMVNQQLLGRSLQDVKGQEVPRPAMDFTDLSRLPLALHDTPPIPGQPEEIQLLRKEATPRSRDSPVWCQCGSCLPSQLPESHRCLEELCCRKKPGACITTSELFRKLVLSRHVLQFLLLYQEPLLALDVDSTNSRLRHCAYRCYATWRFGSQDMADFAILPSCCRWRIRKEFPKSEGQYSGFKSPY
For `C[C@H]1Cn2c(nnc2-c2cnccn2)C(=O)N1Cc1ccccc1OC(F)(F)F` [Example 83, (6S)-6-Methyl-3-pyrazin-2-yl-7-[2-(trifluoromethoxy)benzyl]-6,7-dihydro[1,2,4]triazolo[4,3-a]pyrazin-8(5H)-one], the remaining activity at 10 µM turned out to be 15.6%.

Take `Cc1cccc(C)c1CN1C(=O)c2nnc(-c3cnccn3)n2C[C@@H]1C` [Example 87, (6S)-7-(2,6-Dimethylbenzyl)-6-methyl-3-pyrazin-2-yl-6,7-dihydro[1,2,4]triazolo[4,3-a]pyrazin-8(5H)-one]: the remaining activity at 10 µM is 27%.

Regarding `C[C@H]1Cn2c(nnc2-c2ccc(F)cn2)C(=O)N1Cc1cccc(C(F)(F)F)c1Cl` [Example 30, (6S)-7-[2-Chloro-3-(trifluoromethyl)benzyl]-3-(5-fluoropyridin-2-yl)-6-methyl-6,7-dihydro[1,2,4]triazolo[4,3-a]pyrazin-8(5H)-one], the remaining activity at 10 µM stood at 3.4%.

Regarding `C[C@H]1Cn2c(nnc2-c2ncc(F)cn2)C(=O)N1Cc1cccc(C(F)(F)F)c1Cl` [Example 34, (6S)-7-[2-Chloro-3-(trifluoromethyl)benzyl]-3-(5-fluoropyrimidin-2-v1)-6-methyl-6,7-dihydro[1,2,4]triazolo[4,3-a]pyrazin-8(5H)-one], the remaining activity at 10 µM stood at 0.8%.

In the case of `C[C@H]1Cn2c(nnc2-c2cncc(Cl)c2)C(=O)N1Cc1cccc(C(F)(F)F)c1Cl` [Example 52, (6S)-3-(5-Chloropyridin-3-yl)-7-[2-chloro-3-(trifluoromethyl)benzyl]-6-methyl-6,7-dihydro[1,2,4]triazolo[4,3-a]pyrazin-8(5H)-one], the remaining activity at 10 µM was 13.8%.

Consider `CC[C@H]1Cn2c(nnc2-c2ccc(F)cn2)C(=O)N1Cc1cccc(C(F)(F)F)c1Cl` [Example 76, (6S)-7-[2-Chloro-3-(trifluoromethyl)benzyl]-6-ethyl-3-(5-fluoropyridin-2-yl)-6,7-dihydro[1,2,4]triazolo[4,3-a]pyrazin-8(5H)-one], for which the remaining activity at 10 µM turned out to be 16.9%.

For `Cc1c(CN2CCn3c(nnc3-c3ccccn3)C2=O)cccc1C(F)(F)F` [Example 10, 7-[2-Methyl-3-(trifluoromethyl)benzyl]-3-pyridin-2-yl-6,7-dihydro[1,2,4]triazolo[4,3-a]pyrazin-8(5H)-one], the remaining activity at 10 µM was 59.3%.

Turning to `CCc1nnc2n1C[C@H](C)n1c(-c3cccc(C(F)(F)F)c3Cl)nnc1-2` [Example 116, (S)-3-[2-chloro-3-(trifluoromethyl)phenyl]-8-ethyl-5-methyl-5,6-dihydrobis[1,2,4]triazolo[4,3-a:3′,4′-c]pyrazine], the remaining activity at 10 µM worked out at 6.2%.

For `C[C@H]1Cn2c(nnc2-c2cnccn2)C(=O)N1Cc1cccc(C(F)(F)F)c1Cl` [Example 16, (6S)-7-[2-Chloro-3-(trifluoromethyl)benzyl]-6-methyl-3-pyrazin-2-yl-6,7-dihydro[1,2,4]triazolo[4,3-a]pyrazin-8(5H)-one], the remaining activity at 10 µM stood at 8.4%.

Regarding `COc1ccnc(-c2nnc3n2C[C@H](C)N(Cc2cccc(C(F)(F)F)c2Cl)C3=O)c1` [Example 35, (6S)-7-[2-Chloro-3-(trifluoromethyl)benzyl]-3-(4-methoxypyridin-2-yl)-6-methyl-6,7-dihydro[1,2,4]triazolo[4,3-a]pyrazin-8(5H)-one], the remaining activity at 10 µM was -3.1%.

For the molecule `C[C@H]1Cn2c(nnc2-c2cscn2)C(=O)N1Cc1cccc(C(F)(F)F)c1Cl` [Example 32, (6S)-7-[2-Chloro-3-(trifluoromethyl)benzyl]-6-methyl-3-(1,3-thiazol-4-yl)-6,7-dihydro[1,2,4]triazolo[4,3-a]pyrazin-8(5H)-one], the remaining activity at 10 µM came to 3.8%.

Regarding `C[C@H]1Cn2c(nnc2-c2ccccn2)C(=O)N1Cc1cccc(C(F)(F)F)c1Cl` [Example 18, (6S)-7-[2-Chloro-3-(trifluoromethyl)benzyl]-6-methyl-3-pyridin-2-yl-6,7-dihydro[1,2,4]triazolo[4,3-a]pyrazin-8(5H)-one], the remaining activity at 10 µM was -6.2%.

On to `C[C@H]1Cn2c(nnc2-c2ccncn2)C(=O)N1Cc1cccc(C(F)(F)F)c1Cl` [Example 33, (6S)-7-[2-Chloro-3-(trifluoromethyl)benzyl]-6-methyl-3-pyrimidin-4-yl-6,7-dihydro[1,2,4]triazolo[4,3-a]pyrazin-8(5H)-one], for which the remaining activity at 10 µM was 0.9%.

Regarding `C[C@H]1Cn2c(nnc2-c2cnn(C)c2)C(=O)N1Cc1cccc(C(F)(F)F)c1Cl` [Example 24, (6S)-7-[2-Chloro-3-(trifluoromethyl)benzyl]-6-methyl-3-(1-methyl-1H-pyrazol-4-yl)-6,7-dihydro[1,2,4]triazolo[4,3-a]pyrazin-8(5H)-one], the remaining activity at 10 µM is -0.7%.

Regarding `O=C1c2nnc(-c3cnccn3)n2CC(C2CC2)N1Cc1cccc(C(F)(F)F)c1Cl` (racemic) [Example 61, (±)-7-[2-Chloro-3-(trifluoromethyl)benzyl]-6-cyclopropyl-3-pyrazin-2-yl-6,7-dihydro[1,2,4]triazolo[4,3-a]pyrazin-8(5H)-one], the remaining activity at 10 µM was -1%.

In the case of `C[C@H]1Cn2c(nnc2-c2ncccn2)C(=O)N1Cc1cccc(C(F)(F)F)c1Cl` [Example 27, (6S)-7-[2-Chloro-3-(trifluoromethyl)benzyl]-6-methyl-3-pyrimidin-2-yl-6,7-dihydro[1,2,4]triazolo[4,3-a]pyrazin-8(5H)-one], the remaining activity at 10 µM is -0.7%.

Turning to `C[C@H]1Cn2c(nnc2-c2nccs2)C(=O)N1Cc1cccc(C(F)(F)F)c1Cl` [Example 31, (6S)-7-[2-Chloro-3-(trifluoromethyl)benzyl]-6-methyl-3-(1,3-thiazol-2-yl)-6,7-dihydro[1,2,4]triazolo[4,3-a]pyrazin-8(5H)-one], the remaining activity at 10 µM is 3%.

Turning to `Cc1nc(C)c(-c2nnc3n2C[C@H](C)N(Cc2cccc(C(F)(F)F)c2Cl)C3=O)s1` [Example 39, (6S)-7-[2-Chloro-3-(trifluoromethyl)benzyl]-3-(2,4-dimethyl-1,3-thiazol-5-yl)-6-methyl-6,7-dihydro[1,2,4]triazolo[4,3-a]pyrazin-8(5H)-one], the remaining activity at 10 µM was found to be 20.3%.

Regarding `CC(c1cccc(C(F)(F)F)c1Cl)N1C(=O)c2nnc(-c3cnccn3)n2C[C@@H]1C` (some centres unmarked) [Example 93], the remaining activity at 10 µM is 4.5%.

`CC[C@H]1Cn2c(nnc2-c2ncc(F)cn2)C(=O)N1Cc1cccc(C(F)(F)F)c1Cl` [Example 75, (6S)-7-[2-Chloro-3-(trifluoromethyl)benzyl]-6-ethyl-3-(5-fluoropyrimidin-2-yl)-6,7-dihydro[1,2,4]triazolo[4,3-a]pyrazin-8(5H)-one]: the remaining activity at 10 µM came to 22.6%.

With `C[C@H]1Cn2c(nnc2-c2cccc(C(F)(F)F)n2)C(=O)N1Cc1cccc(C(F)(F)F)c1Cl` [Example 55, (6S)-7-[2-Chloro-3-(trifluoromethyl)benzyl]-6-methyl-3-[6-(trifluoromethyl)pyridin-2-yl]-6,7-dihydro[1,2,4]triazolo[4,3-a]pyrazin-8(5H)-one], the remaining activity at 10 µM amounted to 8.5%.

As to `Cc1c(CN2C(=O)c3nnc(-c4cnccn4)n3C[C@@H]2C)cccc1C(F)(F)F` [Example 85, (6S)-6-Methyl-7-[2-methyl-3-(trifluoromethyl)benzyl]-3-pyrazin-2-yl-6,7-dihydro[1,2,4]triazolo[4,3-a]pyrazin-8(5H)-one], the remaining activity at 10 µM is 16.6%.

As for `O=C1c2nnc(-c3ccccn3)n2CCN1Cc1cccc(Cl)c1Cl` [Example 8, 7-(2,3-Dichlorobenzyl)-3-pyridin-2-yl-6,7-dihydro[1,2,4]triazolo[4,3-a]pyrazin-8(5H)-one], the remaining activity at 10 µM is -10.6%.

As for `C[C@H]1Cn2c(nnc2-c2cnccn2)C(=O)N1Cc1ccccc1[N+](=O)[O-]` [Example 89, (6S)-6-Methyl-7-(2-nitrobenzyl)-3-pyrazin-2-yl-6,7-dihydro[1,2,4]triazolo[4,3-a]pyrazin-8(5H)-one], the remaining activity at 10 µM came to 30.7%.

In the case of `Cc1cnc(-c2nnc3n2C[C@H](C)N(Cc2cccc(C(F)(F)F)c2Cl)C3=O)cn1` [Example 19, (6S)-7-[2-Chloro-3-(trifluoromethyl)benzyl]-6-methyl-3-(5-methylpyrazin-2-yl)-6,7-dihydro[1,2,4]triazolo[4,3-a]pyrazin-8(5H)-one], the remaining activity at 10 µM is -9.5%.

As to `CC[C@H]1Cn2c(nnc2-c2cccnc2)C(=O)N1Cc1cccc(C(F)(F)F)c1Cl` [Example 73, (6S)-7-[2-Chloro-3-(trifluoromethyl)benzyl]-6-ethyl-3-pyridin-3-yl-6,7-dihydro[1,2,4]triazolo[4,3-a]pyrazin-8(5H)-one], the remaining activity at 10 µM turned out to be 6.2%.

`C[C@H]1Cn2c(nnc2C2CCCCC2)C(=O)N1Cc1cccc(C(F)(F)F)c1Cl` [Example 51, (6S)-7-[2-Chloro-3-(trifluoromethyl)benzyl]-3-cyclohexyl-6-methyl-6,7-dihydro[1,2,4]triazolo[4,3-a]pyrazin-8(5H)-one]: the remaining activity at 10 µM came out at 22.4%.

Staying with this assay, now noted: Table 2; 10 μM compound; IL-1β release, LPS + 0.5 mM Bz-ATP.
For the molecule `C[C@H]1Cn2c(nnc2-c2cnccn2)C(=O)N1Cc1cccc(C(F)(F)F)c1Cl` [Example 16, (6S)-7-[2-Chloro-3-(trifluoromethyl)benzyl]-6-methyl-3-pyrazin-2-yl-6,7-dihydro[1,2,4]triazolo[4,3-a]pyrazin-8(5H)-one], the “PBMC 10 μM (% control)” value stood at 13.4 % control.

With `CC(c1cccc(C(F)(F)F)c1Cl)N1C(=O)c2nnc(-c3cnccn3)n2C[C@@H]1C` (some centres unmarked) [Example 93], the “PBMC 10 μM (% control)” value is 4.5 % control.

The record behind these values is patent US10053463B2 (Janssen Pharmaceutica NV, priority 2013, dated 2018).
